This is an account of results in patent US20230183239A1, “ECTONUCLEOTIDE PYROPHOSPHATASE-PHOSPHODIESTERASE 1 (ENPP-1) INHIBITORS AND USES THEREOF” (AbbVie Inc., priority 2017, published 2023).

In general, Ki refers to the equilibrium dissociation constant of an inhibitor or competing ligand from its target.

What all share (assay type): biochemical
In test [1] the target is T1, ENPP1 (Homo sapiens, UniProt P22413).
T1 sequence (P22413 1-925): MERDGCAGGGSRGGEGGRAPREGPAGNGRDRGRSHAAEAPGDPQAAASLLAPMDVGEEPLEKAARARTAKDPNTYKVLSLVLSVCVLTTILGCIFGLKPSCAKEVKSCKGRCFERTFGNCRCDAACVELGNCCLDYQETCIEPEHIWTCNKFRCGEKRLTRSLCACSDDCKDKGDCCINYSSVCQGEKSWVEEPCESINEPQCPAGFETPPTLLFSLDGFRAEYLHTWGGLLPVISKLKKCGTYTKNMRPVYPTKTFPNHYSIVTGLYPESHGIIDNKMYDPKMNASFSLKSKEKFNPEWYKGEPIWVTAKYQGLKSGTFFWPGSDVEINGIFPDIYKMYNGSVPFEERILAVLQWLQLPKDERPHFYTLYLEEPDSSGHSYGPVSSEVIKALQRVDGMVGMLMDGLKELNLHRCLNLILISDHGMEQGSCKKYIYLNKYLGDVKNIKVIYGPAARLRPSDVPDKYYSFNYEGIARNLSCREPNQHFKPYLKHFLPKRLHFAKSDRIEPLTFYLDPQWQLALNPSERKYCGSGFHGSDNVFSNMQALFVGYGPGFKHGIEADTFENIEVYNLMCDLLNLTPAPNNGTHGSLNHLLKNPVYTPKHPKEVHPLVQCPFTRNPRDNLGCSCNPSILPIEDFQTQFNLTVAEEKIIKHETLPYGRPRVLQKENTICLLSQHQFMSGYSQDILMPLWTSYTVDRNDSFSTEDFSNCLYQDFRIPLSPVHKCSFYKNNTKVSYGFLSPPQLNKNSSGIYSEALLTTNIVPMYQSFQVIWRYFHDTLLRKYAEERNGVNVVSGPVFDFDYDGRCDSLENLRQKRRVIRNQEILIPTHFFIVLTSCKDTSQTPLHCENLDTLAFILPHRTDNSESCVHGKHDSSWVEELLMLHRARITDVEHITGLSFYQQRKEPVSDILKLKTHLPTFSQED
Kind of test: ENPP1 enzyme assay with AMP-pNP substrate (hydrolysis of ATP analog). The following applies: AMP-pNP substrate (ATP analog); Ki from IC50 by Cheng-Prusoff; read-out: ENPP1 Inhibition _AMP-pNP: Ki. Summed up:
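Human recombinant ENPP1 (60 ng/well) with 300 µM AMP-pNP in 50 mM Tris-HCl pH 8.5, 250 mM NaCl, 0.5 mM CaCl2, 1 µM ZnCl2, 0.1% DMSO, 20 min at 37 °C.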

Test [2] has as its target T1, ENPP1. Kind of test: Indirect quantitation of 2',3'-cGAMP hydrolysis (AMP-Glo Assay kit). Conditions: cGAMP substrate; Ki from IC50 by Cheng-Prusoff; read-out: ENPP1 Inhibition -cGAMP: Ki.
The target of test [3] is T1, ENPP1. Kind of test: Substrate selectivity ratio, inhibition of cGAMP hydrolysis versus ATP hydrolysis. Conditions: ratio Ki AMP-pNP / Ki cGAMP. As for the experimental part:
The selectivity ratios for inhibition of cGAMP hydrolysis versus ATP hydrolysis were then calculated as follows: […]

In the case of `COc1cc2nccc(N3CCC(CCNS(=O)(=O)NC(C)=O)CC3)c2cc1OC` [Example 203, N-(N-(2-(1-(6,7-dimethoxyquinolin-4-yl)piperidin-4-yl)ethyl)sulfamoyl)acetamide], the figures for the Ki in test [1] and in test [2] were greater than 1000 nM and 100 to 1000 nM, respectively. Besides, the “Substrate Selectivity: Ki_AMP-pNP/Ki_cGAMP” value (shortened to “Substrate Selectivity”) in test [3] is given as greater than 33.7.
Consider `COc1ccc2c(-c3ccc(CNS(N)(=O)=O)nc3)ccnc2c1` [Example 354, N-((5-(7-methoxyquinolin-4-yl)pyridin-2-yl)methyl)sulfamide], for which the Ki in test [1] was 100 to 1000 nM; in test [2] it was less than 100 nM. Also, the “Substrate Selectivity” value in test [3] was determined as 54.
With `COc1cc2ccc(=O)n(Cc3ccc(NS(N)(=O)=O)cc3)c2cc1OC` [Example 126, N-(4-((6,7-dimethoxy-2-oxoquinolin-1(2H)-yl)methyl)phenyl) sulfamide], the Ki was greater than 1000 nM in test [1] and 100 to 1000 nM in test [2]. The “Substrate Selectivity” value in test [3] is greater than 134.
For `COc1cc2nccc(-c3ccc(CNS(N)(=O)=O)c(F)c3)c2cc1OC` [Example 69, N-(4-(6,7-dimethoxyquinolin-4-yl) -2-fluorobenzyl)sulfamide] the same measures were less than 100 nM, less than 100 nM and 8.9.
Turning to `NS(=O)(=O)NCc1ccc(-c2ccnc3cc(F)ccc23)cc1` [Example 296, N-(4-(7-fluoroquinolin-4-yl)benzyl)sulfamide], the inhibition constant (Ki) in test [1] is greater than 1000 nM; in test [2], less than 100 nM. For the same compound, the “Substrate Selectivity” value in test [3] is greater than 40.3.
As for `COc1ccc2ncc(C#N)c(N3CCC4(CC3)CCN(S(N)(=O)=O)C4)c2c1` [Example 238, 8-(3-cyano-6-methoxyquinolin-4-yl)-2,8-diazaspiro[4.5]decane-2-sulfonamide], the Ki is 100 to 1000 nM in test [1] and less than 100 nM in test [2]. Moreover, the “Substrate Selectivity” value in test [3] is on record as greater than 99.7.
Consider `COc1cc2nccc(Nc3ccc(NS(N)(=O)=O)cc3)c2cc1OC` [Example 134, N-(4-((6,7-dimethoxyquinolin-4-yl)amino)phenyl)sulfamide], for which the Ki was greater than 1000 nM in test [1] and less than 100 nM in test [2]. Further, the “Substrate Selectivity” value in test [3] was greater than 69.1.
As to `Cn1c(=O)[nH]c2ncnc(N3CCC(CCNS(N)(=O)=O)CC3)c21` [Example 141, N-(2-(1-(7-methyl-8-oxo-8,9-dihydro-7H-purin-6-yl)piperidin-4-yl)ethyl)sulfamide], the Ki is greater than 1000 nM in test [1] and less than 100 nM in test [2]. Further, the “Substrate Selectivity” value in test [3] is greater than 929.
The like results for `COc1ccc2c(Oc3ccc(NS(N)(=O)=O)cc3)c(C)cnc2c1` [Example 300, N-(4-((7-methoxy-3-methylquinolin-4-yl)oxy)phenyl)sulfamide] were, in that order, 100 to 1000 nM, less than 100 nM and 13.7.
Regarding `COc1ccc2c(-c3ccc(CNS(N)(=O)=O)cc3)ncnc2c1` [Example 226, N-(4-(7-methoxyquinazolin-4-yl)benzyl)sulfamide], the inhibition constant (Ki) in test [1] was 100 to 1000 nM; in test [2], less than 100 nM. In addition, the “Substrate Selectivity” value in test [3] is reported as 29.5.
Consider `COc1cc2ncnc(N3CCC(CCC(=O)NO)CC3)c2cc1OC` [Example 159, 3-(1-(6,7-dimethoxyquinazolin-4-yl)piperidin-4-yl)-N-hydroxypropanamide], for which the inhibition constant (Ki) in test [1] and in test [2] was less than 100 nM throughout. For the same compound, the “Substrate Selectivity” value in test [3] came to 54.8.
`COc1ccc2c(Oc3ccc(NS(N)(=O)=O)c(C#N)c3)ccnc2c1` [Example 315, N-(2-cyano-4-((7-methoxyquinolin-4-yl)oxy)phenyl)sulfamide]: the Ki in test [1] was greater than 1000 nM; in test [2] it was less than 100 nM. Also, the “Substrate Selectivity” value in test [3] is greater than 49.7.
Regarding `COc1ccc2c(-c3ccc(CNS(N)(=O)=O)cc3)c(C#N)cnc2c1` [Example 244, N-(4-(3-cyano-7-methoxyquinolin-4-yl)benzyl)sulfamide], the inhibitory constant (Ki) in test [1] is 100 to 1000 nM; in test [2], less than 100 nM. Besides, the “Substrate Selectivity” value in test [3] stood at 53.0.
Consider `COc1cc2nccc(Oc3ccc(S(N)(=O)=O)cc3)c2cn1` [Example 393, 4-((7-methoxy-1,6-naphthyridin-4-yl)oxy)benzenesulfonamide], for which the results for the inhibitory constant (Ki) in test [1] and in test [2] were 100 to 1000 nM and less than 100 nM, respectively. Further, the “Substrate Selectivity” value in test [3] was determined as 51.
Consider `COc1cc2ncnc(-c3ccc4c(c3)CC(NS(N)(=O)=O)C4)c2cc1OC` (stereo not drawn) [Example 122, N-(5-(6,7-dimethoxyquinazolin-4-yl)-2,3-dihydro-1H-inden-2-yl)sulfamide], for which the Ki in test [1] was 100 to 1000 nM; in test [2], less than 100 nM. The “Substrate Selectivity” value in test [3] was determined as 21.9.
Regarding `COc1ccc2c(Oc3ccc(NS(N)(=O)=O)c(F)c3)ccnc2c1` [Example 297, N-(2-fluoro-4-((7-methoxyquinolin-4-yl)oxy)phenyl)sulfamide], the Ki in test [1] is 100 to 1000 nM; in test [2] it was less than 100 nM. In addition, the “Substrate Selectivity” value in test [3] was found to be 19.5.
Consider `COc1cc2nccc(Oc3cc(F)c(NS(N)(=O)=O)cc3F)c2cc1OC` [Example 258, N-(4-((6,7-dimethoxyquinolin-4-yl)oxy)-2,5-difluorophenyl)sulfamide], for which the Ki in test [1] was greater than 1000 nM; in test [2], less than 100 nM. Also, the “Substrate Selectivity” value in test [3] is listed as greater than 48.1.
The like results for `COc1cc2c(NCc3ccc(S(N)(=O)=O)cc3)ncnc2cn1` [Example 247, 4-(((6-methoxypyrido[3,4-d]pyrimidin-4-yl)amino)methyl)benzenesulfonamide] were, in that order, greater than 1000 nM, 100 to 1000 nM and 67.3.
The like results for `NS(=O)(=O)N1CCC2(CCN(c3ncnc4ccc(F)cc34)CC2)C1` [Example 288, 8-(6-fluoroquinazolin-4-yl)-2,8-diazaspiro[4.5]decane-2-sulfonamide] were, in that order, 100 to 1000 nM, less than 100 nM and 27.9.
In the case of `COc1ccc2c(-c3ccc4c(c3F)CN(S(N)(=O)=O)CC4)ccnc2c1` [Example 410, 8-fluoro-7-(7-methoxyquinolin-4-yl)-3,4-dihydroisoquinoline-2(1H)-sulfamide], the results for the inhibitory constant (Ki) in test [1] and in test [2] were 100 to 1000 nM and less than 100 nM, respectively. For the same compound, the “Substrate Selectivity” value in test [3] is recorded as greater than 42.
`COc1cc2c(N3CCC(CCNS(N)(=O)=O)CC3)ncnc2cn1` [Example 189, N-(2-(1-(6-methoxypyrido[3,4-d]pyrimidin-4-yl)piperidin-4-yl)ethyl)sulfamide]: the inhibitory constant (Ki) in test [1] was greater than 1000 nM; in test [2], 100 to 1000 nM. Also, the “Substrate Selectivity” value in test [3] was greater than 27.0.
With `COc1cc2ncnc(N3CCC(CCNS(N)(=O)=O)CC3)c2cc1F` [Example 206, N-(2-(1-(6-fluoro-7-methoxyquinazolin-4-yl)piperidin-4-yl)ethyl)sulfamide], the inhibition constant (Ki) was 100 to 1000 nM in test [1] and less than 100 nM in test [2]. Also, the “Substrate Selectivity” value in test [3] stood at 39.6.
The like results for `COc1ccc2ncc(C#N)c(-c3ccc(CNS(N)(=O)=O)cc3)c2c1` [Example 240, N-(4-(3-cyano-6-methoxyquinolin-4-yl)benzyl)sulfamide] were, in that order, greater than 1000 nM, less than 100 nM and greater than 81.3.
For `COc1cc2ncnc(NC(C)c3ccc(NS(N)(=O)=O)cc3)c2cc1F` (stereo not drawn) [Example 236, N-(4-(1-((6-fluoro-7-methoxyquinazolin-4-yl)amino)ethyl)phenyl)sulfamide] the same measures were 100 to 1000 nM, less than 100 nM and 109.
On to `COc1cc2nccc(-c3ccc4c(c3)CN(S(N)(=O)=O)CC4)c2cc1OC` [Example 148, 7-(6,7-dimethoxyquinolin-4-yl)-3,4-dihydroisoquinoline-2(1H)-sulfonamide], for which the inhibition constant (Ki) in test [1] and in test [2] was less than 100 nM each time. Also, the “Substrate Selectivity” value in test [3] was 10.1.
